How the values were obtained:
[1] = HCA Crystallization, freeze/thaw temperature cycling; assay type: physicochemical; conditions: Table 7; hydrotrope at stated level in 0.5% 4-HCA composition, formula pH 3.8
Source text: This method provides a way to determine HCA solubility in a composition by observing HCA crystals in situ. The method involves cycling the temperature of a test sample between freezing and thawing to imitate environmental conditions experienced by a skin care composition at an accelerated rate. This type of accelerated aging is commonly used in cosmetic product stability testing. HCA crystals can be detected using conventional means such as visual observation and microscopy.
A bulk sample of at least 10 g (e.g., 20 g-60 g) of the composition to be tested is placed in a suitable container that enables visual observation of the test sample (e.g., transparent plastic or glass jar). The test sample is subjected to 1 month of freeze/thaw temperature cycling to simulate environmental conditions that a skin care product may experience during shipping and storage. This is sometimes referred to as accelerated aging. The temperature cycling involves a 1-week freeze cycle at −7° C., followed by a 1-week thaw cycle at 25° C., and then repeating this freeze/cycle for a total temperature cycling time of 1 month.
Upon completion of the accelerated aging process (i.e., 1 month of temperature cycling), transparent test samples are visually inspected in-situ in the transparent container to determine if HCA crystallization/precipitation occurred. For opaque and translucent samples, the entire test sample is removed from the container and transferred to a suitable transparent substrate (e.g., plastic film or glass plate) and formed into a thin film of no more than 1 mm thickness. The sample is covered with a second transparent substrate to inhibit the loss of volatile ingredients during inspection. A light source (e.g., LED lamp or the like) is used to backlight the sample to aid in visual inspection. HCA crystals will generally appear as a precipitate in the composition visible to the naked eye when observed by someone with 20/20 vision from 45 cm away. Any precipitate identified during visual observation may be further evaluated using a microscope capable of providing fluorescent birefringence observation with cross-polarized light to identify anisotropic crystals. Any anisotropic crystal that has a longest dimension of greater than 0.1 mm is identified as an HCA crystal and the total number of HCA crystals is recorded. A test sample that contains no more than 1 HCA crystal is considered to be “free of HCA crystals” and is recorded as a “pass.” A test sample that contains more than 1 HCA crystal, is recorded as a “fail.”
While it is desirable to formulate HCA containing compositions at lower pH to reduce 4-VP production and yellowing, the solubility of the HCA at low pH may not be sufficient for it to be added at levels needed for an effective skin care active.
The test compositions shown in Table 8 were subjected to 2 freeze/thaw cycles at −7C/25C for 1 week/1 week, totaling one month of temperature cycling.
The test compositions are shown below in Table 9. The test compositions were subjected to 2 freeze/thaw cycles at −7C/25C and 1 week/1 week, followed by a 90-day rest period at 25° C. After completion of the incubation period, the compositions were examined for the presence of HCA crystals, as described above.

[2] = Table 7, hydrotropes; cited from earlier work
[3] = Color method: change in yellowness (Δb*) after accelerated aging; assay type: physicochemical
Source text: This method can be used to determine the change in color of a product, material, or target portion of skin. A spectrophotometer (e.g., Spectrophotometer CM-3600A, Konica Minolta, Japan, or equivalent) is used to measure spectrometric data for CIE (International Commission on Illumination) specified illuminating and viewing conditions, and compute the associated tristimulus values, XYZ, based on CIE observer and a CIE illuminant standards. The ASTM standard for obtaining spectrometric data for Object-Color Evaluation is ASTM E1164-12(2017)el with the values and procedures for computing CIE tristimulus values from spectrometric data outlined in ASTM […]. The CIELAB color scale, also referred to as L*a*b*, are calculated from the tristimulus values as defined in ASTM […]. The L* denotes the sample's perceptual lightness. […] Portion samples are evaluated using a 10 mm path length in a plastic cell (e.g., CM-A131, Konica Minolta, Japan or equivalent), reflectance measurement, a 25.4 mm aperture opening at the specimen surface, and specular component excluded conditions with a standard white background. […] Synergy factor is calculated by dividing the observed value by the expected value. […]

Row | enhancement of effect of the oxygen quenching reducing agent at low pH vs. neutral pH ([3]; 3M40C) [%] | enhancement of effect of the oxygen quenching reducing agent at low pH vs. neutral pH ([3]; 3W50C (printed 3WSOC)) [%] | SMILES | Crystallization [1] | pKA [2]
1 | – | – | O=C(O)c1ccc(O)cc1O [2,4-Dihydroxybenzoic Acid] | Pass (A test sample that contains no more than 1 HCA crystal is considered to be “free of HCA crystals” and is recorded as a “pass.”) | –
2 | – | – | COc1cccc(C(=O)O)c1O [3-Methoxysalicylic acid] | Pass (A test sample that contains no more than 1 HCA crystal is considered to be “free of HCA crystals” and is recorded as a “pass.”) | 2.55
3 | – | – | O=C([O-])C=Cc1ccccc1.[Na+] [Sodium Cinnamate, reference compound] | Fail (A test sample that contains more than 1 HCA crystal, is recorded as a “fail.”) | –
4 | – | – | O=C([O-])c1ccccc1O.[Na+] [Sodium salicylate] | Pass (A test sample that contains no more than 1 HCA crystal is considered to be “free of HCA crystals” and is recorded as a “pass.”) | –
5 | 240 | 20 | O=S([O-])S(=O)(=O)[O-].[Na+].[Na+] [sodium metabisulfite] | – | –
6 | – | – | O=C(O)c1ccc(O)c(O)c1 [3,4-Dihydroxybenzoic Acid, reference compound] | Fail (A test sample that contains more than 1 HCA crystal, is recorded as a “fail.”) | 4.16
7 | – | – | O=C(O)c1cccc(O)c1O [2,3-Dihydroxybenzoic acid] | Pass (A test sample that contains no more than 1 HCA crystal is considered to be “free of HCA crystals” and is recorded as a “pass.”) | 2.56

From patent US12280132B2, “Skin care composition” (The Procter & Gamble Company, priority 2021, dated 2025)
